# Measured values as given in patent US5919464A, “Treatment of aberrant cellular states with biomodulators” (University of New Mexico, priority 1993, dated 1999).
# “Also recorded” adds a separate entry of the source.
# Experiments:
# [1] = tested on: canine glioma cells; assay: cytotoxicity, simple survival (T50%) of canine glioma cells; format: cell-based; settings: Canis lupus familiaris, Glioma cell, read-out: T 50% (50% inhibitory concentration on simple survival)
# Description: (§1) Cytotoxicity was determined as a function of simple survival (T50%), adherence (ADH50%) and thymidine incorporation (I50%) of the cells.
# (§2) Estimates of the 50% inhibitory concentrations of the various drugs tested on simple survival (T50%) and adherence (ADH50%) for canine glioma cells.
# [2] = tested on: human colon carcinoma cell line (LS-174); assay: LS-174 generation times, Compound IIe'; format: cell-based
# Description: The procedure of Example VA, above, was repeated except a human colon carcinoma cell line (LS-174) was used instead of the canine glioma cell line.
# (§3) Mean of triplicate determinations. LS-174 cells (human colon carcinoma) were grown under conditions to promote exponential growth characteristics; 2×10^5 cells in a T-25 flask. The cells were harvested every 72 hours after the controls had reached approximately 85% confluency. The drug was added at the initiation of culture in DMSO, the control cultures had just DMSO. The drug concentration was adjusted with DMSO so that the final concentration of DMSO was always 0.5%.
# [3] = tested on: human peripheral blood leukocytes (HPBLs); assay: HPBL 3H-thymidine incorporation (proliferation); format: cell-based; set-up: reference not given here
# Source text: C. […] This model is used to correlate the effects of biomodulators on the expression of immune response in vitro. The plaque assay disclosed in this reference is used for the determination of the effect of biomodulators on the specificity, class and subclass of individual clones.
# A. Purification of PWM and separation of the differentiative and proliferative functions Pokeweed Mitogen (PWM) and three of its isomitogens, Pa-1 and Pa-5, which are primarily differentiative in nature, and Pa-2 which is primarily proliferative, were prepared according to the method of Waxdal, supra, except that the iso-mitogens were finally purified by isoelectric focusing.
# [4] = molecular target: T1, HMGCoA reductase (Rattus norvegicus, UniProt P51639); assay: inhibition of rat liver HMGCoA reductase activity; format: biochemical; set-up: from tissue; host or cells: rat liver; settings: read-out: IC50 HMG-CoA reductase
# T1 sequence (P51639 1-887): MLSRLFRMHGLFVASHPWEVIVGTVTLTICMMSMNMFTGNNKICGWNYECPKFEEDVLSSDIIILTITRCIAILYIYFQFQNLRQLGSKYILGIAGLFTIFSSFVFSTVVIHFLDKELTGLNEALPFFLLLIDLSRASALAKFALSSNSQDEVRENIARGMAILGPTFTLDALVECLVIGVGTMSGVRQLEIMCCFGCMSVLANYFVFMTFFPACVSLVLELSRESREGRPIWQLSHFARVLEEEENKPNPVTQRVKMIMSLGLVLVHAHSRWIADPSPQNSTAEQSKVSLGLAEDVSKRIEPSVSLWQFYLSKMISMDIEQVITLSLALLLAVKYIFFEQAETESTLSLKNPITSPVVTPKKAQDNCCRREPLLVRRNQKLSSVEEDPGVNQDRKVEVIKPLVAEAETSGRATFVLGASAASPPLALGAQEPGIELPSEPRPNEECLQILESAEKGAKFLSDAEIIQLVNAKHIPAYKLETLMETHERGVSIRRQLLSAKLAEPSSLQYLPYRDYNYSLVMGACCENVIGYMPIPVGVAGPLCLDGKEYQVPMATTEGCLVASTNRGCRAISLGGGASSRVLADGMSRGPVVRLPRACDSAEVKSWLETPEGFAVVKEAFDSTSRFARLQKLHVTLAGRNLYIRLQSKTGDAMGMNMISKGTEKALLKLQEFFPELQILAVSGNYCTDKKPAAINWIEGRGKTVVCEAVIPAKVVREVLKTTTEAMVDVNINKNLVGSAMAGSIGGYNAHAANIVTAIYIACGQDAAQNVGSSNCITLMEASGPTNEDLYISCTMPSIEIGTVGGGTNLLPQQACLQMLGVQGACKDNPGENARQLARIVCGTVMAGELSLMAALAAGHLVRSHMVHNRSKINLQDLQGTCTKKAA
# Source text: reductase activity; data obtained according to Example IA.
# [5] = molecular target: T1, HMGCoA reductase; assay: HMG-CoA reductase inhibition, ED50; format: in vivo; set-up: from tissue; host or cells: whole animal (in vivo dose in μg/kg); settings: HMG-CoA reductase inhibitor
# [6] = tested on: canine glioma cells; assay: canine glioma generation times, Compound IIe'; format: cell-based
# Description: The cells were harvested every 72 hours after the controls had reached 85% confluency. Generation time (Tg) was determined as the number of: hours required for the cell population to double.
# as §3, with “Canine glioma” for “LS-174”, “cells” for “cells (human colon carcinoma)”, “2×10^5cells” for “2×10^5 cells”
# [7] = tested on: canine glioma cells; assay: adherence (ADH50%) of canine glioma cells; format: cell-based; settings: Canis lupus familiaris, Glioma cell
# Description: as §1, §2
# [8] = tested on: canine glioma cells; assay: thymidine incorporation (I50%) of canine glioma cells; format: cell-based; settings: Canis lupus familiaris, Glioma cell
# Description: as §1
# Estimates of the I50% of the various drugs tested on thymidine incorporation of canine glioma cells in culture.
# [9] = biomodulator assay (general); settings: in words
# Source text: All biomodulators will have at least the following effects, which can be measured as indicated above:
# a. Biomodulators cause, at a concentration in the general range of 100 pM-1 μm, the differentiation of lymphocytes. This differentiation can be detected by, for example, the increased production of specific and non-specific antibodies in response to the presence of biomodulator in the culture medium, e.g., according to the HPBL method discussed above in C, or the alteration in the class of antibodies being produced by a cell line, e.g., from IgM to IgG, e.g., according to the method disclosed in the same reference.
# b. Biomodulators cause, at a concentration in the general range of 100 pM-1 μm, the alteration of the cell surface oligosaccharide display of IMR-90 cells in culture as discussed in A. above.
# Activity in both of these assays is a necessary and sufficient measure of whether or not a given substance is a biomodulator, as defined herein.
# [10] = tested on: TNP-Ficoll; assay: in vivo antibody (PFC) response to T-independent antigen TNP-Ficoll; set-up: species or system mouse; settings: in words
# Description: In this case both IgM and IgG hapten specific responses were recorded as well as non-antigen specific plaque responses (Ig-PFC) using a Protein A coated red blood cell target.
# The TNP-Ficoll antigen is administered as the SRBC antigen was above, by i.p. injection and the response assessed by conjugating the TNP hapten directly to the SRBC target, thus obviating any potential "carrier" effect. […] In this case, a third experimental parameter has been added to the study, the production of non-specific immunoglobulin (Ig-PFC). This parameter provides information on the general status of the humoral response regardless of antigen specificity. The TNP-Ficoll antigen does elicit a modest Ig-PFC response but little if any IgG specific response. […] In this case there is a very large specific and non-specific augmentation.
compound,measurement,setting,value
CC(C)OC(=O)C[C@H](O)C[C@@H](O)/C=C/c1c(C(C)C)nc(-c2ccccc2)n1-c1ccc(F)cc1 (relative stereo) [Compound IIe'],IC50,[1]; 24 h,750 nM
same,IC50,[1]; 72 h,800 nM
same,IC50,[1]; 96 h,900 nM
same,Tg,"[2]; 10 nM, 72 h, control 26.5",84.9 h
same,generation time after drug withdrawal,"[2]; two passages, in words",the generation time returned to control levels
same,Proliferation ((3H) thymidine incorporation into DNA),[3],0.85
same,IC50,[4],3 nM
same,ED50,[5],0.025 mg/kg
same,% Change of Tg,"[6]; 10 nM, 72 × 3 h",180%
same,Tg,"[6]; 10 nM, 72 h, control 18.6",25.3 h
same,contact inhibition,[6]; in words,showed evidence of contact inhibition as the cells approached confluency
same,IC50,[7]; 24 h,75 nM
same,IC50,[7]; 72 h,70 nM
same,IC50,[7]; 96 h,75 nM
same,IC50,"[8]; 24 h, first four lines, read-out: I50% (thymidine incorporation)",50 nM
same,IC50,"[8]; 48 h, first four lines, read-out: I50% (thymidine incorporation)",75 nM
same,IC50,"[8]; 48 h, second four lines, read-out: I50% (thymidine incorporation)",75 nM
same,IC50,"[8]; 72 h, first four lines, read-out: I50% (thymidine incorporation)",80 nM
same,IC50,"[8]; 96 h, first four lines, read-out: I50% (thymidine incorporation)",50 nM
same,IC50,"[8]; 96 h, second four lines, read-out: I50% (thymidine incorporation)",50 nM
same,IC50,"[8]; text to Table V, read-out: I50% (thymidine incorporation into DNA)",50 to 80 nM
same,IC50,"[8]; 24 h, second four lines, read-out: I50% (thymidine incorporation)",100 nM
same,IC50,"[8]; 72 h, second four lines, read-out: I50% (thymidine incorporation)",30 nM
Cc1c(/C=C/C(O)CC(O)CC(=O)O)ccc2c1C(O)CC(C)C2 (stereo not shown) [colletruncoic acid],biomodulator activity,[9],has been shown to have biomodulator activity
Dextran,PFC response to TNP-Ficoll,[10],some stimulatory effect; also recorded: marked cellular proliferation but little differentiative response
